For one assay, the target named is human H1 receptor (Homo sapiens (Human), UniProt P35367). The experiment in a line: H1 Binding assay ([3H]pyrilamine competition, membranes from CHO-K1 cells transfected with human H1 receptor). The settings on record: affinity for human histamine H1 receptor, class symbols; — not defined in key; read-out: ACTIVITY CLASS hH1R (Ki). How it is done: Cetirizine and pyrilamine were supplied by Sigma-Aldrich. Bilastine was synthetized at FAES FARMA facilities (Lamiako-Leioa, Spain), chemical reagents such as Na2HPO4, KH2PO4 or polyvinylpyrrolidone as well as multiscreen microplates (MSFBN6B50) were purchased from Merck Millipore, scintillation liquid (Microscint 20), human H1 membranes (ES-390-M400UA) and ^3H-pirilamina (NET 594) were provided by PerkinElmer.
Chain of human H1 receptor (P35367 whole entry): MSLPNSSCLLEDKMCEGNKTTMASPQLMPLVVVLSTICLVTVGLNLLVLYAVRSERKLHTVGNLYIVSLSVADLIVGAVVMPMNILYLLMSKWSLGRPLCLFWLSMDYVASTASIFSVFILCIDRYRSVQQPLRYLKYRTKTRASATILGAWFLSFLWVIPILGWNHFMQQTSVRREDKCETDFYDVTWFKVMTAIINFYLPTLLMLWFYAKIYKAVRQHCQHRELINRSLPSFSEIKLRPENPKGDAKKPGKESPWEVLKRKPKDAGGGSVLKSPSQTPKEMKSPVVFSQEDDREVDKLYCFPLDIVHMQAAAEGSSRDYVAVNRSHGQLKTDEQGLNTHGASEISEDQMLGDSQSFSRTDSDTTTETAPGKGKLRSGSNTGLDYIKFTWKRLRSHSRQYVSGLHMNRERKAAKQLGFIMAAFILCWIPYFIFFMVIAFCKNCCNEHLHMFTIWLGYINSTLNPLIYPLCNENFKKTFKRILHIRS
Affinity for histamine H1-receptor was determined by H1 Binding assay: • Membranes form CHO-K1 cells transfected with human H1 receptor and microplates of 96-well format were used. • For competition studies cell membranes were homogenated in 50 mM phosphate buffer (Na2HPO4 and KH2PO4 mixed to pH 7.4 at 25° C.) and added to the microplate at the concentration of approximately 5 μg/well. […] Non specific binding was defined using 10 μM unlabeled pyrilamine and the total incubation volume was 275 μl per well. • Incubations were performed until gentle agitation at 25° C. for 60 min and concluding with a rapid vacuum filtration using pre-soaked filters (5% polyvinylpyrrolidone). After ten rapid washes with cold wash buffer (50 mM phosphate buffer) the filter plates were dried at room temperature for 30 min. • Finally, scintillation liquid (Microscint 20) was added to the whole microplate in order to measure the radioactivity retained on the filters using an specific scintillation counter (Top Count—NXT). Curve analysis and values of IC50 were determined using Grap Pad Prism program (GraphPad Software, San Diego, USA). • Test compounds were initially evaluated at one concentration (1 μM) and thereafter if significant displacement was observed (>40%) a concentration-response curve was conducted. Each test concentration was measured in triplicate. • As reference compounds pyrilamine, cetirizine and Bilastine were used.

In the next assay the target is human H4 receptor (Homo sapiens (Human), UniProt Q9H3N8). As to the kind of experiment: H4 Binding assay ([3H]histamine competition, membranes from CHO-K1 cells transfected with human H4 receptor). How it is done:
Affinity for histamine H4-receptor was determined by H4 Binding assay:
• Membranes from CHO-K1 cells transfected with human H4 receptor and microplates of 96-well format were used. • For competition studies cell membranes were homogenated in Tris-HCl 50 mM, EDTA 5 mM, pH 7.4 and added to the microplate at the concentration of approximately 15 μg/well. […] Non specific binding was defined using 10 μM unlabeled histamine and the total incubation volume was 275 μl per well. • Incubations were performed under gentle agitation at 25° C. for 60 min and concluding with a rapid vacuum filtration using pre-soaked filters (0.5% polyethylenimine). After ten rapid washes with cold wash buffer (50 mM Tris-HCl buffer) the filter plates were dried at room temperature for 30 min. • Finally, scintillation liquid (Microscint 20) was added to the whole microplate in order to measure the radioactivity reattained on the filters using a specific scintillation counter (Top Count—NXT). […] H1 Binding Assay Materials

Where [1] appears, read: affinity for human histamine H4 receptor, class symbols, read-out: ACTIVITY CLASS hH4R (Ki).

Read-outs that look alike come from different tables or passages of the source.

Chain of human H4 receptor (Q9H3N8 whole entry): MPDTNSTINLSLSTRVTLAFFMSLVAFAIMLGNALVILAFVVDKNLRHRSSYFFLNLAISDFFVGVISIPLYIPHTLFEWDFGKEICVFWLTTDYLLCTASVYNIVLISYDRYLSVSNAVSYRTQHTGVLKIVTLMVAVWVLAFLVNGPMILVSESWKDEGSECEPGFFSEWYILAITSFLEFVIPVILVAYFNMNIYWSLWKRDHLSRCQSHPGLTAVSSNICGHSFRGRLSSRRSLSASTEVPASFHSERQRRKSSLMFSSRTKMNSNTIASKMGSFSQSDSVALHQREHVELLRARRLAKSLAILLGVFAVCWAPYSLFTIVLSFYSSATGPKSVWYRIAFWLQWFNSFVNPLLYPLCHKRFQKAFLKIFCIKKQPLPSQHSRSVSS

Take `CN1CCN(c2nc(NCc3cccs3)c3cc(Cl)ncc3n2)CC1` [Example 3, 6-chloro-2-(4-methylpiperazin-1-yl)-N-(thiophen-2-ylmethyl)pyrido[3,4-d]pyrimidin-4-amine]: the Ki on human H1 receptor is below 1 µM; on human H4 receptor (setting [1]), below 0.1 µM; on human H4 receptor (histamine H4 receptor, comparative compounds, read-out: Ki), 0.00075 µM. At human H4 receptor (histamine H4 receptor binding), this compound came in with a half-inhibitory concentration (IC50) of 0.00174 µM. At human H4 receptor (histamine H4 receptor binding, compounds initially evaluated at 1 μM), this compound registered an inhibition at 1 µM of 94%.

As for `CN1CCN(c2nc(NCc3ccco3)c3cc(Cl)ncc3n2)CC1` [Example 4, 6-chloro-N-(furan-2-ylmethyl)-2-(4-methylpiperazin-1-yl)pyrido[3,4-d]pyrimidin-4-amine], the inhibition constant (Ki) at human H1 receptor is below 1 µM; at human H4 receptor (setting [1]), below 0.1 µM. The matching figures for `CN1CCN(c2nc(NCc3ccsc3)c3cc(Cl)ncc3n2)CC1` [Example 5, 6-chloro-2-(4-methylpiperazin-1-yl)-N-(thiophen-3-ylmethyl)pyrido[3,4-d]pyrimidin-4-amine]: below 1 µM and below 1 µM. The matching figures for `CN1CCN(c2nc(NCCS(=O)(=O)N(C)c3ccccc3)c3cc(Cl)ncc3n2)CC1` [Example 17, 2-((6-chloro-2-(4-methylpiperazin-1-yl)pyrido[3,4-d]pyrimidin-4-yl)amino)-N-methyl-N-phenylethane-1-sulfonamide]: below 1 µM and below 0.1 µM. The matching figures for `Clc1cc2c(NCc3cccs3)nc(N3CCNCC3)nc2cn1` [Example 24, 6-chloro-2-(piperazin-1-yl)-N-(thiophen-2-ylmethyl)pyrido[3,4-d]pyrimidin-4-amine]: below 1 µM and below 0.1 µM. Take `Clc1cc2c(NCc3ccco3)nc(N3CCNCC3)nc2cn1` [Example 25, 6-chloro-N-(furan-2-ylmethyl)-2-(piperazin-1-yl)pyrido[3,4-d]pyrimidin-4-amine]: the inhibition constant Ki on human H1 receptor and on human H4 receptor (setting [1]) was below 1 µM each time. In the case of `CCCc1cc2c(NCc3cccs3)nc(N3CCN(C)CC3)nc2cn1` [Example 49, 2-(4-methylpiperazin-1-yl)-6-propyl-N-(thiophen-2-ylmethyl)pyrido[3,4-d]pyrimidin-4-amine], the Ki at human H1 receptor and on human H4 receptor (setting [1]) was below 1 µM each time. Regarding `CC(C)c1cc2c(NCCS(=O)(=O)Nc3ccccc3)nc(N3CCN(C)CC3)nc2cn1` [Example 54, 2-((6-isopropyl-2-(4-methylpiperazin-1-yl)pyrido[3,4-d]pyrimidin-4-yl)amino)-N-phenylethane-1-sulfonamide], the inhibitory constant (Ki) on human H1 receptor is below 1 µM; on human H4 receptor (setting [1]), below 0.1 µM.

With `Cc1cc2c(NCc3cccs3)nc(N3CCNCC3)nc2cn1` [Example 60, 6-methyl-2-(piperazin-1-yl)-N-(thiophen-2-ylmethyl)pyrido[3,4-d]pyrimidin-4-amine], the Ki on human H1 receptor and at human H4 receptor (setting [1]) was below 1 µM each time. Take `Cc1ccsc1CNc1nc(N2CCN(C)CC2)nc2cnc(Cl)cc12` [Example 68, 6-chloro-2-(4-methylpiperazin-1-yl)-N-((3-methylthiophen-2-yl)methyl)pyrido[3,4-d]pyrimidin-4-amine]: the Ki on human H1 receptor and at human H4 receptor (setting [1]) was below 1 µM throughout.

In the case of `Cc1ccc(CNc2nc(N3CCN(C)CC3)nc3cnc(Cl)cc23)s1` [Example 69, 6-chloro-2-(4-methylpiperazin-1-yl)-N-((5-methylthiophen-2-yl)methyl)pyrido[3,4-d]pyrimidin-4-amine], the inhibition constant (Ki) on human H1 receptor and at human H4 receptor (setting [1]) was below 1 µM each time.

Regarding `CN1CCN(c2nc(NCCS(=O)(=O)Nc3ccccc3Cl)c3cc(Cl)ncc3n2)CC1` [Example 72, 2-((6-chloro-2-(4-methylpiperazin-1-yl)pyrido[3,4-d]pyrimidin-4-yl)amino)-N-(2-chlorophenyl)ethane-1-sulfonamide], the values for the Ki on human H1 receptor and at human H4 receptor (setting [1]) were below 1 µM and below 0.1 µM, respectively.

For the compound `COc1ccccc1NS(=O)(=O)CCNc1nc(N2CCN(C)CC2)nc2cnc(Cl)cc12` [Example 74, 2-((6-chloro-2-(4-methylpiperazin-1-yl)pyrido[3,4-d]pyrimidin-4-yl)amino)-N-(2-methoxyphenyl)ethane-1-sulfonamide], the Ki is below 1 µM on human H1 receptor and below 0.1 µM on human H4 receptor (setting [1]). For the compound `CN1CCN(c2nc(NCCS(=O)(=O)Nc3cccnc3)c3cc(Cl)ncc3n2)CC1` [Example 86, 2-((6-chloro-2-(4-methylpiperazin-1-yl)pyrido[3,4-d]pyrimidin-4-yl)amino)-N-(pyridin-3-yl)ethane-1-sulfonamide], on human H4 receptor (setting [1]), the Ki is below 0.1 µM. On to `CN1CCN(c2nc(NCCS(=O)(=O)Nc3cccc(Cl)n3)c3cc(Cl)ncc3n2)CC1` [Example 87, 2-((6-chloro-2-(4-methylpiperazin-1-yl)pyrido[3,4-d]pyrimidin-4-yl)amino)-N-(6-chloropyridin-2-yl)ethane-1-sulfonamide], for which the inhibitory constant (Ki) on human H4 receptor (setting [1]) is below 1 µM. Turning to `CN1CCN(c2nc(NCCS(=O)(=O)NCc3ccccn3)c3cc(Cl)ncc3n2)CC1` [Example 88, 2-((6-chloro-2-(4-methylpiperazin-1-yl)pyrido[3,4-d]pyrimidin-4-yl)amino)-N-(pyridin-2-ylmethyl)ethane-1-sulfonamide], the Ki on human H4 receptor (setting [1]) was below 0.1 µM. On the same count and under the same terms, the figure for `Cc1cc(NS(=O)(=O)CCNc2nc(N3CCN(C)CC3)nc3cnc(Cl)cc23)n(C)n1` [Example 90, 2-((6-chloro-2-(4-methylpiperazin-1-yl)pyrido[3,4-d]pyrimidin-4-yl)amino)-N-(1,3-dimethyl-1H-pyrazol-5-yl)ethane-1-sulfonamide] is below 1 µM.

For the compound `CN1CCN(c2nc(NCCS(=O)(=O)c3ccccc3)c3cc(Cl)ncc3n2)CC1` [Example 93, 6-chloro-2-(4-methylpiperazin-1-yl)-N-(2-(phenylsulfonyl)ethyl)pyrido[3,4-d]pyrimidin-4-amine], the inhibition constant Ki on human H1 receptor is below 1 µM; at human H4 receptor (setting [1]) it was below 0.1 µM. For the compound `CN1CCN(c2nc(NCCS(=O)(=O)Cc3ccccc3)c3cc(Cl)ncc3n2)CC1` [Example 94, N-(2-(benzylsulfonyl)ethyl)-6-chloro-2-(4-methylpiperazin-1-yl)pyrido[3,4-d]pyrimidin-4-amine], the inhibition constant (Ki) on human H1 receptor is below 1 µM; on human H4 receptor (setting [1]), below 0.1 µM.

For `CN1CCN(c2nc(NCC[S+]([O-])Cc3ccccc3)c3cc(Cl)ncc3n2)CC1` (stereo not shown) [Example 95, N-(2-(benzylsulfinyl)ethyl)-6-chloro-2-(4-methylpiperazin-1-yl)pyrido[3,4-d]pyrimidin-4-amine], the inhibition constant (Ki) at human H1 receptor is below 1 µM; at human H4 receptor (setting [1]), below 0.1 µM. As to `CNC(=O)CCNc1nc(N2CCN(C)CC2)nc2cnc(Cl)cc12` [Example 98, 3-((6-chloro-2-(4-methylpiperazin-1-yl)pyrido[3,4-d]pyrimidin-4-yl)amino)-N-methylpropanamide], on human H4 receptor (setting [1]), the inhibitory constant (Ki) is below 1 µM.

The term Ki denotes a measure of affinity in units of concentration, obtained from inhibition or displacement. One may read the IC50 as the concentration that gives 50% inhibition. What is called inhibition is the percentage by which the read-out fell short of the control. A lower inhibition goes with a response near the control.

The values are drawn from patent US12492199B2, “Pyridopyrimidines as histamine H4-receptor inhibitors” (FAES FARMA, S.A., priority 2018, dated 2025).
